In BindingDB's records for doi:10.1016/j.bmc.2019.05.001 (2019):

Test: Inhibition of mouse GAT2 expressed in HEK293 cells assessed as reduction in [3H]GABA uptake preincubated for 25 mins followed by [3H]GABA addition and measured after 10 mins by liquid scintillation counting method

O=C(O)C1CCN(CCON=Cc2ccccc2-c2ccc(Cl)cc2Cl)C1 (stereo unspecified)
IC50: 53.7 µM
